From patent US20190282497A1 (Bryn Pharma, LLC, priority 2018, published 2019) come the findings set out here.

The test system of the experiment is histamine induced nasal congestion.

Structures are written as SMILES.

`NCCc1c[nH]cn1` [Histamine, histamine]: the “nasal congestion and flow restriction pressure” value (Group 1, 5 and 10 minutes post-histamine exposure) is “progressive increase in nasal congestion and flow restriction pressure”. For the setting “pilot study, no epinephrine, 60, 80 and 100 minute time points”, the “histamine induced congestion without epinephrine” value was “remains elevated at significant levels”.
